Results taken from patent US10131652B2, “Pyrimidinyloxy benzene derivatives as herbicides” (E. I. DU PONT DE NEMOURS AND COMPANY, priority 2014, dated 2018).
Where two headings read alike, the source gives them in different places.

Key:
Experiment in all cases: Test E pre-/postemergence plant response
Assay type in all cases: in vivo
[1] = system: wild radish (Raphanus raphanistrum); conditions: scale 0 to 100, read-out: Plant response rating, Radish, Wild; for pest or weed control at 16 g/ha: 16 g ai/ha; for pest or weed control at 31 g/ha: 31 g ai/ha; for pest or weed control at 62 g/ha: 62 g ai/ha; for pest or weed control at 125 g/ha: 125 g ai/ha
Summary of the method: (§1)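 Pre-emergence: seeds sown in silt loam soil and sprayed with test chemicals in a non-phytotoxic solvent/surfactant mix. Post-emergence: plants at 2–18 cm (1- to 4-leaf stage) in peat/vermiculite medium treated with the same formulation. Visual rating versus controls after 7–21 days, 0 (no effect) to 100 (complete control).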

[2] = system: spring barley (Hordeum vulgare); conditions: for plant injury at 16 g/ha: 16 g ai/ha; for plant injury at 31 g/ha: 31 g ai/ha; for plant injury at 62 g/ha: 62 g ai/ha; for plant injury at 125 g/ha: 125 g ai/ha
Summary of the method: as §1

[3] = system: speedwell (bird's-eye speedwell, Veronica persica); conditions: scale 0 to 100, read-out: Plant response rating, Speedwell; for pest or weed control at 16 g/ha: 16 g ai/ha; for pest or weed control at 62 g/ha: 62 g ai/ha; for pest or weed control at 125 g/ha: 125 g ai/ha
Summary of the method: as §1

[4] = system: spring wheat (Triticum aestivum); conditions: scale 0 to 100, read-out: Plant response rating, Wheat, Spring; for plant injury at 16 g/ha: 16 g ai/ha; for plant injury at 62 g/ha: 62 g ai/ha; for plant injury at 125 g/ha: 125 g ai/ha
Summary of the method: as §1

[5] = system: lambsquarters (Chenopodium album); conditions: scale 0 to 100, read-out: Plant response rating, Lambsquarters; for pest or weed control at 16 g/ha: 16 g ai/ha; for pest or weed control at 31 g/ha: 31 g ai/ha; for pest or weed control at 62 g/ha: 62 g ai/ha; for pest or weed control at 125 g/ha: 125 g ai/ha
Summary of the method: as §1

[6] = system: chickweed (common chickweed, Stellaria media); conditions: scale 0 to 100, read-out: Plant response rating, Chickweed; for pest or weed control at 16 g/ha: 16 g ai/ha; for pest or weed control at 31 g/ha: 31 g ai/ha; for pest or weed control at 62 g/ha: 62 g ai/ha; for pest or weed control at 125 g/ha: 125 g ai/ha
Summary of the method: as §1

[7] = system: winter wheat (Triticum aestivum); conditions: scale 0 to 100, read-out: Plant response rating, Wheat, Winter; for plant injury at 16 g/ha: 16 g ai/ha; for plant injury at 62 g/ha: 62 g ai/ha; for plant injury at 125 g/ha: 125 g ai/ha
Summary of the method: as §1

[8] = system: bluegrass (annual bluegrass, Poa annua); conditions: scale 0 to 100, read-out: Plant response rating, Bluegrass; for pest or weed control at 16 g/ha: 16 g ai/ha; for pest or weed control at 31 g/ha: 31 g ai/ha; for pest or weed control at 62 g/ha: 62 g ai/ha; for pest or weed control at 125 g/ha: 125 g ai/ha
Summary of the method: as §1

[9] = system: galium (catchweed bedstraw, Galium aparine); conditions: scale 0 to 100, read-out: Plant response rating, Galium; for pest or weed control at 16 g/ha: 16 g ai/ha; for pest or weed control at 31 g/ha: 31 g ai/ha; for pest or weed control at 62 g/ha: 62 g ai/ha; for pest or weed control at 125 g/ha: 125 g ai/ha
Summary of the method: as §1

[10] = system: Italian ryegrass (Lolium multiflorum); conditions: scale 0 to 100, read-out: Plant response rating, Ryegrass, Italian; for pest or weed control at 16 g/ha: 16 g ai/ha; for pest or weed control at 31 g/ha: 31 g ai/ha; for pest or weed control at 62 g/ha: 62 g ai/ha; for pest or weed control at 125 g/ha: 125 g ai/ha
Summary of the method: as §1

[11] = system: field violet (Viola arvensis); conditions: scale 0 to 100, read-out: Plant response rating, Field Violet; for pest or weed control at 16 g/ha: 16 g ai/ha; for pest or weed control at 31 g/ha: 31 g ai/ha; for pest or weed control at 62 g/ha: 62 g ai/ha; for pest or weed control at 125 g/ha: 125 g ai/ha
Summary of the method: as §1

[12] = post-emergence, Postemergence, scale 0 to 100, read-out: Plant response rating, Barley, Spring
[13] = pre-emergence, Preemergence, scale 0 to 100, read-out: Plant response rating, Barley, Spring
[14] = post-emergence, 31 g ai/ha, Postemergence

## FC(F)c1cc(-c2ccccc2Oc2ncc(Br)cn2)no1 [Compound 62, 5-bromo-2-[2-[5-(difluoromethyl)-3-isoxazolyl]phenoxy]pyrimidine]
[1]; post-emergence, Postemergence
  pest or weed control at 16 g/ha: 65%
  pest or weed control at 31 g/ha: 70%
  pest or weed control at 62 g/ha: 90%
  pest or weed control at 125 g/ha: 100%
[1]; pre-emergence, Preemergence
  pest or weed control at 16 g/ha: 25%
  pest or weed control at 31 g/ha: 40%
  pest or weed control at 62 g/ha: 95%
  pest or weed control at 125 g/ha: 100%
[2]; [12]
  plant injury at 16 g/ha: 10%
  plant injury at 31 g/ha: 15%
  plant injury at 62 g/ha: 20%
[2]; post-emergence, Postemergence, scale 0 to 100 (0 no effect, 100 complete control), read-out: Plant response rating, Barley, Spring
  plant injury at 125 g/ha: 25%
[2]; [13]
  plant injury at 16 g/ha: 0%
  plant injury at 31 g/ha: 0%
  plant injury at 62 g/ha: 0%
  plant injury at 125 g/ha: 0%
[3]; post-emergence, Postemergence
  pest or weed control at 16 g/ha: 70%
  pest or weed control at 62 g/ha: 100%
  pest or weed control at 125 g/ha: 100%
[3]; [14]
  pest or weed control at 31 g/ha: 95%
[3]; pre-emergence, Preemergence
  pest or weed control at 16 g/ha: 95%
  pest or weed control at 62 g/ha: 95%
  pest or weed control at 125 g/ha: 100%
[4]; post-emergence, Postemergence
  plant injury at 16 g/ha: 5%
  plant injury at 62 g/ha: 25%
  plant injury at 125 g/ha: 40%
[4]; [14]
  plant injury at 31 g/ha: 20%
[4]; pre-emergence, Preemergence
  plant injury at 16 g/ha: 0%
  plant injury at 62 g/ha: 0%
  plant injury at 125 g/ha: 10%
[5]; post-emergence, Postemergence
  pest or weed control at 16 g/ha: 75%
  pest or weed control at 31 g/ha: 95%
  pest or weed control at 62 g/ha: 95%
  pest or weed control at 125 g/ha: 95%
[5]; pre-emergence, Preemergence
  pest or weed control at 16 g/ha: 35%
  pest or weed control at 31 g/ha: 85%
  pest or weed control at 62 g/ha: 95%
  pest or weed control at 125 g/ha: 100%
[6]; post-emergence, Postemergence
  pest or weed control at 16 g/ha: 65%
  pest or weed control at 31 g/ha: 70%
  pest or weed control at 62 g/ha: 80%
  pest or weed control at 125 g/ha: 90%
[6]; pre-emergence, Preemergence
  pest or weed control at 16 g/ha: 65%
  pest or weed control at 31 g/ha: 75%
  pest or weed control at 62 g/ha: 100%
  pest or weed control at 125 g/ha: 100%
[7]; post-emergence, Postemergence
  plant injury at 16 g/ha: 10%
  plant injury at 62 g/ha: 30%
  plant injury at 125 g/ha: 35%
[7]; [14]
  plant injury at 31 g/ha: 20%
[7]; pre-emergence, Preemergence
  plant injury at 16 g/ha: 0%
  plant injury at 62 g/ha: 0%
  plant injury at 125 g/ha: 5%
[8]; post-emergence, Postemergence
  pest or weed control at 16 g/ha: 10%
  pest or weed control at 31 g/ha: 35%
  pest or weed control at 62 g/ha: 55%
  pest or weed control at 125 g/ha: 60%
[8]; pre-emergence, Preemergence
  pest or weed control at 16 g/ha: 0%
  pest or weed control at 31 g/ha: 5%
  pest or weed control at 62 g/ha: 10%
  pest or weed control at 125 g/ha: 75%
[9]; post-emergence, Postemergence
  pest or weed control at 16 g/ha: 70%
  pest or weed control at 31 g/ha: 70%
  pest or weed control at 62 g/ha: 75%
  pest or weed control at 125 g/ha: 90%
[9]; pre-emergence, Preemergence
  pest or weed control at 16 g/ha: 5%
  pest or weed control at 31 g/ha: 60%
  pest or weed control at 62 g/ha: 65%
  pest or weed control at 125 g/ha: 100%
[10]; post-emergence, Postemergence
  pest or weed control at 16 g/ha: 10%
  pest or weed control at 31 g/ha: 20%
  pest or weed control at 62 g/ha: 30%
  pest or weed control at 125 g/ha: 35%
[10]; pre-emergence, Preemergence
  pest or weed control at 16 g/ha: 0%
  pest or weed control at 31 g/ha: 0%
  pest or weed control at 62 g/ha: 15%
  pest or weed control at 125 g/ha: 25%
[11]; post-emergence, Postemergence
  pest or weed control at 16 g/ha: 60%
  pest or weed control at 31 g/ha: 65%
  pest or weed control at 62 g/ha: 70%
  pest or weed control at 125 g/ha: 85%
[11]; pre-emergence, Preemergence
  pest or weed control at 16 g/ha: 0%
  pest or weed control at 31 g/ha: 10%
  pest or weed control at 62 g/ha: 35%
  pest or weed control at 125 g/ha: 100%
